Results taken from patent US10730857B2, “Benzocyanine compounds” (Pierce Biotechnology, Inc., priority 2011, dated 2020).
“Also recorded” adds a separate entry of the source.

What was measured:
lamin A in U20S cells = assay: Immunofluorescence detection of lamin A in U20S cells (FIG. 20A-C and repeat); type: cell-based
Method: In the indicated experiments, the inventive compounds and commercial dye were evaluated for immunofluorescence in a cell based assay using the following protocol. Frozen U20S cell plates which were stored at −80° C. were thawed for 45 minutes at 50° C. Storage buffer (PBS) was removed and the cells were permeabilized for 15 minutes with 0.1% Triton-X100 in 1×PBS buffer (100 μl/well). The cell plate was blocked for 60 minutes in 2% BSA/PBS-0.1% Triton-X100. Primary antibody, either rat anti-Grp94 (5 μg/ml), mouse anti-lamin A (10 μg/ml), or rabbit anti-lamin B1 (10 μg/ml), diluted in 2% BSA/PBS-0.1% Triton-X100 was added to the plate and incubated for 1 hour at room temperature. Control wells contained only 2% BSA/PBS-0.1% Triton-X100 blocker. After incubation, the antibody solution was removed from the plate and the plate was washed three times with 100 μl/well of PBS-0.5% Tween-20 and one time with 100 μl/well PBS. GARat, GAM, or GAR secondary antibodies labeled with various molar excess of the inventive or commercial compound were diluted to 4 μg/ml in PBS and incubated for 1 hour at room temperature. The plates were washed three times with 100 μl/well of PBST and once with 100 μl/well PBS, and Hoechst (diluted to 0.1 μg/ml in PBS) was added to each well (100 μl/well). The plates were scanned on ArrayScan Plate Reader or ToxInsight Instrument.

[1] = system: rabbit IgG immunoglobulin; assay: Plate functional assay of dye-GAR conjugates; type: binding; conditions: for quenching at 1000 ng/well at 25× (in words): FIG. 14 summary Raw Fluorescence Intensity
Method: Performance of the dye-GAM conjugates, dye-GAR conjugates, and dye-SA conjugates was evaluated in a functional assay. Wells of a 96 white opaque plate or black clear-bottom plate were coated with target proteins mouse IgG immunoglobulin, rabbit IgG immunoglobulin, or biotinylated bovine serum albumin (BBSA). One hundred μl mouse or rabbit IgG, or BBSA at a concentration of 10 μg/ml was applied to the corresponding wells in columns 1 and 2. The target proteins were serially diluted 1:1 from the wells in columns 2 to 11 using 100 μl PBS. One hundred μl of the samples from the wells in column 11 were discarded. One hundred μl PBS was added to the wells in column 12. The plates were incubated overnight at 4° C. and then blocked 2×200 μl with Thermo Scientific SuperBlock® Blocking Buffer. The coated plates were washed 2×200 μl with PBS-Tween and 1×200 μl with PBS. Based on the calculated concentrations, conjugates were diluted 1:250 in PBS, added to the corresponding plates (100 μl/well) and then incubated for one hour in the dark. The plates were washed with 2×200 μl with PBS-Tween and 1×200 μl with PBS and filled with PBS buffer (100 μl/well) prior to scanning the white opaque plates on Tecan Safire using 679 nmexcitation/702 nmemission or scanning the black clear-bottom plates on LiCor Odyssey at 700 channel, to detect fluorescence intensity.

[2] = Absorbance/emission spectral properties and fluorescence intensity of the dyes; type: physicochemical; conditions: second property table of Example 6; NHS ester forms
Method: Emission/excitation profiles for inventive and commercial compounds was determined by reconstituting the compounds in DMF at 10 mg/ml and then diluting in PBS buffer pH 7.2 to 10 μg/ml.

[3] = In vivo imaging with dye-labeled anti-CEA antibody; parameters: species or system nu/nu mice; conditions: dye conjugated to mouse anti-CEA antibody; i.v.; predicted results
Method: The inventive compounds are used for in vivo imaging as described in J. Gastrointest Surg (2008) 12:1938-1950. Briefly, human pancreatic cell lines are maintained in media supplemented with penicillin/streptomycin at 37° C. with 5% CO2. Mouse anti-CEA antibody and Control Mouse IgG (in PBS with 0.20% sodium azide) are conjugated to V08-15173. The dye is reconstituted at 10 mg/ml in DMF and then added to the antibody at a 10 molar excess. The reaction is carried out for one hour at room temperature. The samples are then dialyzed against 3×2 L of PBS. The cell lines are plated in 96-well plates at 5×10^4 cells per well. After 48 hours culture in appropriate media, the cells are incubated with 1 μg of V08-15173 labeled anti-CEA antibody or V08-15173-labeled control mouse IgG for four hours at 37° C. The cells are then washed three times with PBS and then imaged with an inverted Nikon De-485 microscope and Spot camera RD.
Surgical procedures and intravital imaging are performed with the animals anesthesized by intramuscular injection of 0.02 ml of 50% ketamine, 38% xylazine and 12 acepromazine maleate. Human pancreatic and colorectal cancer cell lines are harvested by trypsinization and washed twice with serum free medium […]. Cells (1×10^6 in 100 μl of serum-free media) are injected subcutaneously within 30 minutes of harvesting over the right flank in female nu/nu mice between 4-6 weeks of age. Subcutaneous tumors are allowed to grow for 7-14 days until they reached diameter of 1-2 mm prior to the delivery of conjugated antibody. For ASPC-1 implants, the cells are harvested by trypsinization and washed 3× in serum-free media. […]. The cells are resuspended in serum-free media at 5×10^6/ml. A volume of 200 μl of the cell suspension is then injected directly into the peritoneal cavity within 30 minutes of harvesting.
For antibody delivery, one to two weeks after subcutaneous, orthotopic, or intraperitoneal tumor implantation, animals are given intravenous (i.v.) injection of either conjugated anti-CEA or conjugated control IgG antibody diluted in PBS to a final volume of 100 μl. All i.v. injections are done via the tail vein. For the dose-response experiment, the antibody dose is 75 μg. For the in vivo time course, the animals are anesthesized and imaged at 30 min, 1, 2, 6, 24 hours and 8 and 15 days after systemic antibody delivery.
The inventive compounds are used for in vivo imaging as described in J. Gastrointest Surg (2008) 12:1938-1950. Briefly, human pancreatic cell lines are maintained in media supplemented with penicillin/streptomycin at 37° C. with 5% CO2. Mouse anti-CEA antibody and Control Mouse IgG (in PBS with 0.20% sodium azide) are conjugated to 779 Compound 1. […]

With `COCC[N+]1=C(/C=C/C=C/C=C2/N(CCCCCC(=O)O)c3ccc4c(S(=O)(=O)[O-])cc(S(=O)(=O)[O-])cc4c3C2(C)C)C(C)(CCCS(=O)(=O)[O-])c2c1ccc1c(S(=O)(=O)[O-])cc(S(=O)(=O)[O-])cc21.[Na+].[Na+].[Na+].[Na+]` (stereo not drawn) [679 Compound 1/1, 2-{(1E,3E)-5-[3-(5-Carboxypentyl)-1,1-dimethyl-6,8-disulfo-1,3-dihydro-benzo[e]indol-(2E)-ylidene]-penta-1,3-dienyl}-3-(2-methoxy-ethyl)-1-methyl-6,8-disulfo-1-(3-sulfopropyl)-1H-benzo[e]indolium] the “Mean Total Intensity, Average, 2.5 X” value (lamin A in U20S cells; GAM conjugate 4 μg/ml, 2.5 X molar excess) was 29229, the “Mean Total Intensity, Average, 5.0 X” value (lamin A in U20S cells; GAM conjugate 4 μg/ml, 5.0 X molar excess) was 49279 and the “Mean Total Intensity, Average, 7.5 X” value (lamin A in U20S cells; GAM conjugate 4 μg/ml, 7.5 X molar excess) was 28782. The “Mean Total Intensity, Average, 10 X” value (lamin A in U20S cells; GAM conjugate 4 μg/ml, 10 X molar excess) was 30098, the “Mean Total Intensity, Average, 15 X” value (lamin A in U20S cells; GAM conjugate 4 μg/ml, 15 X molar excess) was 48071 and the “Mean Total Intensity, Negative control, 2.5 X” value (lamin A in U20S cells; repeat experiment, no primary antibody, 2.5 X) was 8711. The “Mean Total Intensity, Negative control, 5 X” value (lamin A in U20S cells; repeat experiment, no primary antibody, 5 X) was 8674, the “Mean Total Intensity, Negative control, 10 X” value (lamin A in U20S cells; repeat experiment, no primary antibody, 10 X) was 20481 and the “Mean Total Intensity, Negative control, 15 X” value (lamin A in U20S cells; repeat experiment, no primary antibody, 15 X) was 16277. For the same compound, the “quenching at 1000 ng/well at 25× (in words)” value [1] was “apparent quenching” and the “Raw Fluorescence Intensity behaviour at 25× molar excess (in words)” value ([1]; LiCOR Odyssey, FIG. 12) was “saturating at 25×”.
With `COCCOCCOCCOCC[N+]1=C(/C=C/C=C/C=C2/N(CCOCCOCCOCCOCCC(=O)ON3C(=O)CCC3=O)c3ccc4c(S(=O)(=O)[O-])cc(S(=O)(=O)O)cc4c3C2(C)CCOCCOCCOCCOC)C(C)(CCOCCOCCOCCOC)c2c1ccc1c(S(=O)(=O)O)cc(S(=O)(=O)O)cc21` (stereo not drawn) [Compound V08-15173] the Em [2] was 706 nm, the Ex [2] was 684 nm and the “S/B 2.5 X” value (lamin A in U20S cells; GAM conjugate, 2.5 X molar excess) was 2.9. The “S/B 5.0 X” value (lamin A in U20S cells; GAM conjugate, 5.0 X molar excess) was 4.9, the “S/B 7.5 X” value (lamin A in U20S cells; GAM conjugate, 7.5 X molar excess) was 6.0 and the “S/B 10 X” value (lamin A in U20S cells; GAM conjugate, 10 X molar excess) was 4.9. The “S/B 15 X” value (lamin A in U20S cells; GAM conjugate, 15 X molar excess) was 4.6, the “non-specific binding / specificity (in words)” value (lamin A in U20S cells; GAM conjugates, FIG. 20A-C) was “a minimal amount of non-specific binding; also recorded: little non-specific binding” and the “Mean Total Intensity, Negative control, 7.5 X” value (lamin A in U20S cells; no primary antibody, 7.5 X molar excess) was 7100. For the same compound, the “S/B 2.5 X” value (lamin A in U20S cells; repeat experiment, 2.5 X molar excess) was 9.8, the “Ex vivo analysis of the vital organs” value [3] was “presence of dye predominantly in the liver with some signal detected in the spleen intestines and lungs” and the “post-experiment surgical exposure: accumulation of dye” value [3] was “accumulation of dye in the liver, bladder, and a region of inflammation in the subcutaneous tissue”. The “quenching at 1000 ng/well at 25× (in words)” value [1] was “no apparent quenching”.
